molecular target: human H-PGDS (Homo sapiens, UniProt O60760); experiment: Hematopoietic prostaglandin D synthase (H-PGDS) inhibiting action, [14C]PGH2 to PGD2 conversion, TLC radioassay; format: biochemical; details: compound 0.1 μM; inhibition rate relative to solvent control group; [14C] prostaglandin H2 10 μM, 25° C.; read-out: H-PGDS inh. (% at 0.1 μM)
Protocol: The test was carried out according to the method of Urade, Y. et al. (J. Biol. Chem., 262, 3820-3825, (1987)). More specifically, a reaction mixture (49 μL) containing 100 mM Tris-HCl (pH 8.0), 1 mM reduced form glutathione, 0.1 mg/mL γ-globulin, human H-PGDS (q.s.), and a compound (0.1 μM) was preincubated at 25° C. for 5 minutes. A DMSO solution (final concentration: 1%) was added to the solvent control group. Subsequently, 1 μL of [^14C] prostaglandin H2 (final concentration: 10 μM) was added to start the reaction. One minute after the start of the reaction, 250 μL of a reaction stopper solution (diethylether/methanol/1M citric acid (30/4/1)) cooled with ice was added to stop the reaction. After the reaction was stopped, 50 μL of the upper layer portion (organic solvent phase) was applied to a TLC plate and developed at −20° C. for 45 minutes (developing solvent: diethylether/methanol/acetic acid (90/2/1)). After the TLC plate was dried and exposed to an imaging plate for 1 to 24 hours, the radioactivity corresponding to prostaglandin D2 (PGD2) was analyzed using an image analyzer (produced by Fujifilm Corporation). The area (%) occupied by the PGD2 band per lane and the inhibition rate (%) of each Example compound at 0.1 μM relative to the control group in each experiment were calculated.

Chain of human H-PGDS (O60760 whole entry): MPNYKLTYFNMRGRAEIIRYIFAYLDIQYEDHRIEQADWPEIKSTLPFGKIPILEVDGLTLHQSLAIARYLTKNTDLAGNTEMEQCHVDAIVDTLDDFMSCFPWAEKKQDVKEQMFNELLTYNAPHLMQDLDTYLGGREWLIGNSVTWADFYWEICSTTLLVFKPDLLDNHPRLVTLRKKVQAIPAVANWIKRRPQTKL

inhibition at 0.1 µM [%] | Structure (SMILES)
85.7 | O=C(Nc1nc2ccc(-c3cccnc3)cc2s1)N1CCC(=Cc2ccccn2)CC1 [Example 3, N-(6-(pyridin-3-yl)-benzo[d]thiazol-2-yl)-4-(pyridin-2-ylmethylene)-piperidine-1-carboxamide]
62.9 | Cc1noc(C)c1-c1ccc2nc(NC(=O)N3CCC(=Cc4ccccn4)CC3)sc2c1 [Example 4, N-(6-(3,5-dimethylisoxazol-4-yl)-benzo[d]thiazol-2-yl)-4-(pyridin-2-ylmethylene)-piperidine-1-carboxamide]
77.8 | O=C(Nc1nc2ccc(-c3ccncc3)cc2s1)N1CCC(=Cc2ccccn2)CC1 [Example 5, N-(6-(pyridin-4-yl)-benzo[d]thiazol-2-yl)-4-(pyridin-2-ylmethylene)-piperidine-1-carboxamide]
78.8 | O=C(Nc1nc2ccc(-c3cncnc3)cc2s1)N1CCC(=Cc2ccccn2)CC1 [Example 6, N-(6-(pyrimidin-5-yl)-benzo[d]thiazol-2-yl)-4-(pyridin-2-ylmethylene)-piperidine-1-carboxamide]
74.2 | COc1ccc(-c2ccc3nc(NC(=O)N4CCC(=Cc5ccccn5)CC4)sc3c2)cn1 [Example 7, N-(6-(2-methoxypyridin-5-yl)-benzo[d]thiazol-2-yl)-4-(pyridin-2-ylmethylene)-piperidine-1-carboxamide]
80 | O=C(Nc1nc2ccc(-c3cccs3)cc2s1)N1CCC(=Cc2ccccn2)CC1 [Example 8, N-(6-(thiophen-2-yl)-benzo[d]thiazol-2-yl)-4-(pyridin-2-ylmethylene)-piperidine-1-carboxamide]
76.6 | COc1ncccc1-c1ccc2nc(NC(=O)N3CCC(=Cc4ccccn4)CC3)sc2c1 [Example 9, N-(6-(2-methoxypyridin-3-yl)-benzo[d]thiazol-2-yl)-4-(pyridin-2-ylmethylene)-piperidine-1-carboxamide]
61.9 | Nc1ccc2nc(NC(=O)N3CCC(=Cc4ccccn4)CC3)sc2c1 [Example 10, N-(6-aminobenzo[d]thiazol-2-yl)-4-(pyridin-2-ylmethylene)-piperidine-1-carboxamide]
52.4 | O=C(Nc1ccc2nc(NC(=O)N3CCC(=Cc4ccccn4)CC3)sc2c1)N1CCOCC1 [Example 11, N-(2-(4-(pyridin-2-ylmethylene)piperidine-1-carboxamido)benzo[d]thiazol-6-yl)morpholine-4-carboxamide]
53.9 | O=C(Nc1ccc(CCn2ccnn2)cc1)c1cnc(NC(=O)N2CCC(=Cc3ccccn3)CC2)s1 [Example 14, N-(4-(2-(1H-1,2,3-triazol-1-yl)ethyl)phenyl)-2-(4-(pyridin-2-ylmethylene)piperidine-1-carboxamido)thiazole-5-carboxamide]
52.7 | O=C(Nc1ccc(N2CCCCC2)cc1)c1cnc(NC(=O)N2CCC(=Cc3ccccn3)CC2)s1 [Example 16, N-(4-(piperidin-1-yl)phenyl)-2-(4-(pyridin-2-ylmethylene)piperidine-1-carboxamido)thiazole-5-carboxamide]
65 | O=C(Nc1ncc(C(=O)N2CCCCC2)s1)N1CCC(=Cc2ccccn2)CC1 [Example 17, N-(5-(piperidin-1-yl-carbonyl)thiazol-2-yl)-4-(pyridin-2-ylmethylene)piperidine-1-carboxamide]
65.1 | O=C(O)c1ccc(NC(=O)c2cnc(NC(=O)N3CCC(=Cc4ccccn4)CC3)s2)cc1 [Example 18, 4-(2-(4-(pyridin-2-ylmethylene)piperidine-1-carboxamido)thiazole-5-carboxamido)benzoic acid]
61.4 | O=C(O)c1ccc(-c2cnc(NC(=O)N3CCC(=Cc4ccccn4)CC3)s2)cc1 [Example 20, 4-(2-(4-(pyridin-2-ylmethylene)piperidine-1-carboxamido)thiazol-5-yl)benzoic acid]
66.5 | O=C(Nc1nccs1)c1ccc(-c2cnc(NC(=O)N3CCC(=Cc4ccccn4)CC3)s2)cc1 [Example 22, 4-(pyridin-2-ylmethylene)-N-(5-(4-(thiazol-2-ylcarbamoyl)phenyl)thiazol-2-yl)piperidine-1-carboxamide]
65.9 | CS(=O)(=O)NC(=O)c1ccc(-c2cnc(NC(=O)N3CCC(=Cc4ccccn4)CC3)s2)cc1 [Example 23, N-(5-(4-(methylsulfonylcarbamoyl)phenyl)thiazol-2-yl)-4-(pyridin-2-ylmethylene)piperidine-1-carboxamide]
68.2 | O=C(NS(=O)(=O)c1ccccc1)c1ccc(-c2cnc(NC(=O)N3CCC(=Cc4ccccn4)CC3)s2)cc1 [Example 24, N-(5-(4-(phenylsulfonylcarbamoyl)phenyl)thiazol-2-yl)-4-(pyridin-2-ylmethylene)piperidine-1-carboxamide]
57.4 | O=C(Nc1ccc(-c2cnc(NC(=O)N3CCC(=Cc4ccccn4)CC3)s2)cc1)c1cscn1 [Example 26, N-(4-(2-(4-(pyridin-2-ylmethylene)piperidine-1-carboxamido)thiazol-5-yl)phenyl)thiazole-4-carboxamide]
50.2 | O=C(O)c1ccc(-c2cnc(NC(=O)N3CCC(=Cc4ccccn4)CC3)s2)nc1 [Example 27, 6-(2-(4-(pyridin-2-ylmethylene)piperidine-1-carboxamido)thiazol-5-yl)nicotinic acid]
53.2 | O=C(O)c1ccc(-c2ccc(NC(=O)N3CCC(=Cc4ccccn4)CC3)cn2)cc1 [Example 28, 4-(5-(4-(pyridin-2-ylmethylene)piperidine-1-carboxamido)pyridin-2-yl)benzoic acid]
78.8 | O=C(Nc1nccs1)c1ccc(-c2ccc(NC(=O)N3CCC(=Cc4ccccn4)CC3)cn2)cc1 [Example 29, 4-(pyridin-2-ylmethylene)-N-(6-(4-(thiazol-2-ylcarbamoyl)phenyl)pyridin-3-yl)piperidine-1-carboxamide]
67.1 | O=C(NC1CC1)c1ccc(-c2ccc(NC(=O)N3CCC(=Cc4ccccn4)CC3)cn2)cc1 [Example 30, N-(6-(4-(cyclopropylcarbamoyl)phenyl)pyridin-3-yl)-4-(pyridin-2-ylmethylene)piperidine-1-carboxamide]
52.9 | CN(C)C(=O)c1ccc(-c2ccc(NC(=O)N3CCC(=Cc4ccccn4)CC3)cn2)cc1 [Example 31, N-(6-(4-(dimethylcarbamoyl)phenyl)pyridin-3-yl)-4-(pyridin-2-ylmethylene)piperidine-1-carboxamide]
76.1 | CS(=O)(=O)NC(=O)c1ccc(-c2ccc(NC(=O)N3CCC(=Cc4ccccn4)CC3)cn2)cc1 [Example 32, N-(6-(4-(methylsulfonylcarbamoyl)phenyl)pyridin-3-yl)-4-(pyridin-2-ylmethylene)piperidine-1-carboxamide]
50 | O=C(O)c1ccc(-c2ncc(NC(=O)N3CCC(=Cc4ccccn4)CC3)cn2)cc1 [Example 33, 4-(5-(4-(pyridin-2-ylmethylene)piperidine-1-carboxamido)pyrimidin-2-yl)benzoic acid]

Structure (SMILES) | inhibition at 0.1 µM [%]
O=C(Nc1nc2ccc(Br)cc2s1)N1CCC(=Cc2ccccn2)CC1 [Example 1, N-(6-bromobenzo[d]thiazol-2-yl)-4-(pyridin-2-ylmethylene)-piperidine-1-carboxamide] | 70.9

Source: patent publication US9181183B2, “Prostaglandin D synthase inhibitory piperidine compounds” (Taiho Pharmaceutical Co., Ltd., priority 2010, dated 2015)
